System: TLR2 induced IL-6 in peripheral blood mononuclear cells (PBMCs)
Assay: PBMC TLR2 Induced IL-6 Assay
Type: cell-based
Details: Homo sapiens, PBMC, 5 h, 10 μg/ml lipoteichoic acid for 5 hours, IL-6 by ELISA; for IC50: values without asterisk, read-out: Cell IC50; for EC50: values marked * are EC50, read-out: Cell EC50 (values marked *)
Description: PBMC TLR2 Induced IL-6 Assay Peripheral blood mononuclear cells (PBMCs) were isolated from human blood containing the anti-coagulant EDTA (2.5 mM) by centrifugation over a FICOLL® gradient. […] At the end of the culture, plates were centrifuged at 1800 rpm for 10 minutes to pellet the cells. Supernatants were harvested and analyzed for IL-6 levels by ELISA (BD Biosciences, San Jose, Calif.).

| Compound | IC50 [nM] | EC50 [nM] |
| --- | --- | --- |
| CC(C)Nc1cc(Nc2ccnc(NC3CCCOC3)n2)ncc1C(=O)NC[C@@H](F)C(C)(C)O (stereo partly drawn) [Example 25, N-((2R)-2-fluoro-3-hydroxy-3-methylbutyl)-4-(isopropylamino)-6-((2-(tetrahydro-2H-pyran-3-ylamino)-4-pyrimidinyl)amino)nicotinamide] | 372 |  |
| CC(C)Nc1cc(Nc2ccnc(N3CCC(F)C3)n2)ncc1C(=O)NC[C@@H](F)C(C)(C)O (stereo partly drawn) [Example 26, N-((2R)-2-fluoro-3-hydroxy-3-methylbutyl)-6-((2-(3-fluoro-1-pyrrolidinyl)-4-pyrimidinyl)amino)-4-(isopropylamino)nicotinamide] | 139 |  |
| CC(=O)N[C@H](C)CCNC(=O)c1cnc(Nc2ncc(C#N)cc2Cl)cc1NC(C)C [Example 28, (R)—N-(3-acetamidobutyl)-6-((3-chloro-5-cyanopyridin-2-yl)amino)-4-(isopropylamino)nicotinamide] | 270 |  |
| CC(C)NC(=O)N[C@H](C)CCNC(=O)c1cnc(Nc2ncc(C#N)cc2F)cc1NC(C)C [Example 29, (R)-6-((5-cyano-3-fluoropyridin-2-yl)amino)-4-(isopropylamino)-N-(3-(3-isopropylureido)butyl)nicotinamide] | 111 |  |
| CCNC(=O)[C@H]1CC[C@H](NC(=O)c2cnc(Nc3ncc(C#N)cc3F)cc2NC(C)C)CC1 [Example 30, 6-((5-cyano-3-fluoropyridin-2-yl)amino)-N-((1R,4R)-4-(ethylcarbamoyl)cyclohexyl)-4-(isopropylamino)nicotinamide] |  | 163 |
| CC(C)Nc1cc(Nc2ccc(C#N)cn2)ncc1C(=O)NC1CCC(O)(c2ccnn2C)CC1 (centres unmarked) [Example 31, 6-((5-cyanopyridin-2-yl)amino)-N-((1s,4s)-4-hydroxy-4-(1-methyl-1H-pyrazol-5-yl)cyclohexyl)-4-(isopropylamino)nicotinamide] |  | 170 |
| CS[C@H]1CC[C@H](NC(=O)c2cnc(Nc3ncc(C#N)cc3F)cc2NC(C)C)CC1 [Example 32, 6-((5-cyano-3-fluoropyridin-2-yl)amino)-4-(isopropylamino)-N-((1R,4R)-4-(methylthio)cyclohexyl)nicotinamide] |  | 199 |
| CC(C)Nc1cc(Nc2ncc(C#N)cc2F)ncc1C(=O)N[C@H]1CC[C@H](S(C)(=O)=O)CC1 [Example 33, 6-((5-cyano-3-fluoropyridin-2-yl)amino)-4-(isopropylamino)-N-((1R,4R)-4-(methylsulfonyl)cyclohexyl)nicotinamide] |  | 149 |
| CC(=O)Nc1nc(Nc2cc(NC(C)C)c(C(=O)NC[C@@H](F)C(C)(C)O)cn2)ncc1C#N [Example 34] |  | 122 |
| COC[C@H](F)CNC(=O)c1cnc(Nc2ncc(C#N)cc2F)cc1NC(C)C [Example 35, (R)-6-((5-cyano-3-fluoropyridin-2-yl)amino)-N-(2-fluoro-3-methoxypropyl)-4-(isopropylamino)nicotinamide] |  | 350 |
| COC(C)(C)[C@H](F)CNC(=O)c1cnc(Nc2ncc(C#N)cc2F)cc1NC(C)C [Example 36] |  | 49 |
| [2H]C([2H])([2H])OC(C)(C)[C@H](F)CNC(=O)c1cnc(Nc2ncc(C#N)cc2F)cc1NC(C)C [Example 37] |  | 95 |
| CC(C)(O)[C@H](F)CNC(=O)c1cnc(Nc2ncc(C(N)=O)cc2Cl)cc1NC1CCC(F)C1 (some centres unmarked) [Example 38] |  | 453 |
| C[C@@H](CF)Nc1cc(Nc2ncc(C#N)cc2Cl)ncc1C(=O)NC[C@@H](F)C(C)(C)O [Example 39, 6-((3-chloro-5-cyanopyridin-2-yl)amino)-N—((R)-2-fluoro-3-hydroxy-3-methylbutyl)-4-(((S)-1-fluoropropan-2-yl)amino)nicotinamide] |  | 100 |
| CC(C)Nc1cc(Nc2ncc(C#N)c(NC(C)C)n2)ncc1C(=O)NC[C@@H](F)C(C)(C)O [Example 40] |  | 161 |
| CC(C)Nc1cc(Nc2nc(OC3CCNCC3)ncc2Cl)ncc1C(=O)NC[C@@H](F)C(C)(C)O [Example 41] |  | 160 |
| CC(C)(O)[C@H](F)CNC(=O)c1cnc(Nc2nc(OC3CCNCC3)ncc2Cl)cc1NC1CC1 [Example 42] |  | 329 |

From patent publication US10023562B2, “Heteroaryl substituted pyridyl compounds useful as kinase modulators” (BRISTOL-MYERS SQUIBB COMPANY, priority 2012, dated 2018)
